Reference: US6169181A, “Compounds useful to treat retroviral infections” (Pharmacia & Upjohn Company, priority 1998, dated 2001)
Several values for one entry are separate records, joined by “and”; a condition that tells them apart may be missing. Equal entries are not always repeated. Where two headings read alike, the source gives them in different places.

Columns and labels:
HIV-1 protease [1] = molecular target: T1, HIV-1 protease (Human immunodeficiency virus type 1 group M subtype B, UniProt P04585); experiment: biochemical; conditions: for inhibition at 0.123 µM / inhibition at 0.37 µM / inhibition at 1.1 µM / inhibition at 3.3 µM / inhibition at 10 µM / inhibition at 30 µM: read-out: Protease % Inhib
How it was run: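 Percent inhibition came from fluorescence of FITC-tagged cleavage product, separated by filtration from uncleaved substrate captured on streptavidin-coated beads. The enzyme (10 μl of 0.1 μM) and compound acted on a biotin/FITC dual-labelled peptide for one hour at room temperature in the dark. The reaction ran in 0.1 M sodium acetate, pH 5.5, with 1.0 M NaCl and 0.05% NP-40.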

HIV-1 protease [2] = molecular target: T1, HIV-1 protease; experiment: biochemical
Experimental: The HIV protease screening assay is based on fluorescently labeled substrate which can be resolved from nonlabeled cleavage product using special beads coated with streptavidin. The substrate is biotinylated at the amino terminal arginine and fluorescently labeled with fluorescein isothiocynate (FITC) at the carboxyl terminal lysine. […] Substrate ([…] of 0.2 μM), sample (10 μl of desired concentraion), and enzyme (10 μl of 0.1 μM) are added to a 96 well pandex plate. The assay is run in 0.1 M sodium acetate buffer at pH 5.5 in the presence of 1.0 M sodium chloride and 0.05% NP-40 with incubated in the dark for one hour at room temperature. Strepavidin coated polystyrene beads {40 μl of 0.1% (w/v)} are added and the plate is incubated in the dark for an additional half hour. The labeled cleavage product is separated from the unreacted substrate via filtration and is read on the Idexx screen machine. The data are analyzed by appropriate computer algorithms to ascertain percent inhibition values.
Determination of Ki values utilizes the same materials and equipment employed for percent inhibition studies. Two-fold serial dilutions are made for a given inhibitor from 2, 3 or 4 starting concentrations with a total of 24, 36 or 48 individual inhibitor concentrations. These dilutions are performed utilizing the BioMek robotics system. The assay consists of 10 μL of 40 nM HIV-1 protease, 10 μL of the various inhibitor concentrations, and 20 μL of 200 μM substrate (40 μL total). The reaction is allowed to proceed for 90 min at room temperature, terminated with 40 μL of avidin beads and processed (supra vide). An inhibitor with a known K; is run in parallel to verify the validity of the assay. The data is processed utilizing a computer program employing a nonlinear least square analysis of the data to generate the Ki values.

[3] = Table I, read-out: HIV Protease FITC Assay Ki
[4] = Table II, enzyme HIV-1, DOSE 0.123 (unit not given)
[5] = Table II, enzyme HIV-1, DOSE 0.370 (unit not given)
[6] = Table II, enzyme HIV-1, DOSE 1.100 (unit not given)
[7] = Table II, enzyme HIV-1, DOSE 3.300 (unit not given)
[8] = Table II, enzyme HIV-1, DOSE 10.000 (unit not given)
[9] = Table II, enzyme HIV-1, DOSE 30.000 (unit not given)
[10] = Table II, enzyme HIV-1, read-out: FITC KI

Row | SMILES | Ki (HIV-1 protease [2]; [3]) | inhibition at 0.123 µM (HIV-1 protease [1]; Table I, Dose 0.123 μM) | inhibition at 0.37 µM (HIV-1 protease [1]; Table I, Dose 0.370 μM) | inhibition at 1.1 µM (HIV-1 protease [1]; Table I, Dose 1.100 μM) | inhibition at 3.3 µM (HIV-1 protease [1]; Table I, Dose 3.300 μM) | inhibition at 10 µM (HIV-1 protease [1]; Table I, Dose 10.000 μM) | inhibition at 30 µM (HIV-1 protease [1]; Table I, Dose 30.000 μM) | other results
1 | CCCC1(CCC)CC(O)=C(C(CC)c2cccc(NS(=O)(=O)c3cccc4cccnc34)c2)C(=O)O1 (single isomer, unassigned) [Example 54, (S or R)-N-[3-[1-(4-Hydroxy-2-oxo-6,6-dipropyl-5,6-dihydro-2H-pyran-3-yl)-propyl]-phenyl]-8-quinolinesulfonamide] | 13.3 nM |  |  |  |  |  |  | PROTEASE % INHIB. (HIV-1 protease [1]; Table I, Dose 0.123 μM): 46.64%; PROTEASE % INHIB. (HIV-1 protease [1]; Table I, Dose 0.370 μM): 72.41%; PROTEASE % INHIB. (HIV-1 protease [1]; Table I, Dose 1.100 μM): 87.91%; PROTEASE % INHIB. (HIV-1 protease [1]; Table I, Dose 3.300 μM): 89.11%; PROTEASE % INHIB. (HIV-1 protease [1]; Table I, Dose 10.000 μM): 87.77%; PROTEASE % INHIB. (HIV-1 protease [1]; Table I, Dose 30.000 μM): 91.99%
2 | COc1ccc2c(O)c(C(c3cccc(NS(=O)(=O)c4cn(C)cn4)c3)C3CC3)c(=O)oc2c1 (centres unmarked) [Example 152, N-(3-{Cyclopropyl-[7-methoxy-4-hydroxycoumarin-3-yl]-methyl}-phenyl)-1-methyl-1H-imidazole-4-sulfonamide] |  |  |  |  |  |  |  | inhibition at 0.123 µM (HIV-1 protease [1]): 11.5%; inhibition at 0.37 µM (HIV-1 protease [1]): 80.2%; inhibition at 1.1 µM (HIV-1 protease [1]): 95.8%; inhibition at 3.3 µM (HIV-1 protease [1]): 94.4%; inhibition at 10 µM (HIV-1 protease [1]): 95.5%; inhibition at 30 µM (HIV-1 protease [1]): 96.5%; Ki (HIV-1 protease [2]; HIV Protease FITC Assay Ki): 0.71 nM
3 | Cn1cnc(S(=O)(=O)Nc2cccc(C(C3=C(O)CC(CCC4CC4)(CCC4CC4)OC3=O)C(C)(C)C)c2)c1 (centres unmarked) [Example 264, N-[3-(1-[6,6-Bis-(2-cyclopropyl-ethyl)-5,6-dihydro-4-hydroxy-2-oxo-2H-pyran-3-yl]-2,2-dimethyl-propyl)phenyl]-1-methyl-1H-imidazole-4-sulfonamide] | 3.7 nM | 67.2% | 75% | 67.7% | 57.6% | 53.7% | 64.6% | 
4 | CN(c1cccc(C(c2c(O)c3c(oc2=O)CCCCCC3)C2CC2)c1)S(=O)(=O)c1cn(C)cn1 (centres unmarked) [Example 195, N-methyl-N-[3-[cyclopropyl(5,6,7,8,9,10-hexahydro-4-hydroxy-2-oxo-2H-cycloocta[b]pyran-3-yl)methyl]phenyl]-1H-Imidazole-1-methyl-sulfonamide] | 3.7 nM | 60.9% | 85.1% | 90.8% | 90.8% | 93.1% | 92.7% | 
5 | CC[C@H](Cc1ccccc1)c1cc(O)c(C(c2cccc(NS(=O)(=O)c3cn(C)cn3)c2)C2CC2)c(=O)o1 (single isomer, unassigned) [Example 138, N-(3-(R or S)-[Cyclopropyl-[6-(l-(R)-ethylphenethyl)-4-hydroxy-2-oxo-2H-pyran-3-yl]-methyl}-phenyl)-1-methyl-1H-imidazole-4-sulfonamide] | 0.73 nM and 1.4 nM | 101% | 95.5% | 101% | 99.6% | 94.8% | 105% | 
6 | CCCC1(CCC)CC(O)=C(C(c2cccc(NS(=O)(=O)c3cn(C)cn3)c2)C2CC2)C(=O)O1 (single isomer, unassigned) [Example 56, (R or S)-N-[3-[1-(4-Hydroxy-2-oxo-6,6-dipropyl-5,6-dihydro-2H-pyran-3-yl)-cyclopropylmethyl]-phenyl]-1-methyl-1H-imidazole-4-sulfonamide] | 0.23 nM | 104% | 108% | 105% | 105% | 115% | 111% | 
7 | CN(c1cccc(C(c2c(O)c3c(oc2=O)CCCCCC3)C2CC2)c1)S(=O)(=O)c1ccc(C#N)cc1 (centres unmarked) [Example 192, 4-Cyano-N-methyl-N-[3-[cyclopropyl(5,6,7,8,9,10-hexahydro-4-hydroxy-2-oxo-2H-cycloocta[b]pyran-3-yl)methyl]phenyl]-benzenesulfonamide] | 7.2 nM | 44% | 76.3% | 94% | 96.9% | 103% | 94.4% | 
8 | CCCC1(CCc2ccccc2)CC(O)=C(C(CC)c2cccc(NS(=O)(=O)c3ccc(F)cc3)c2)C(=O)O1 (centres unmarked) [Example 93A, 4-Fluoro-N-[3-[1-(4-hydroxy-2-oxo-6-phenethyl-6-propyl-5,6-dihydro-2H-pyran-3-yl)-propyl]-phenyl]-benzenesulfonamide] |  |  |  |  |  |  |  | inhibition at 0.123 µM (HIV-1 protease [1]): 59.5%; inhibition at 0.37 µM (HIV-1 protease [1]): 90.4%; inhibition at 1.1 µM (HIV-1 protease [1]): 104%; inhibition at 3.3 µM (HIV-1 protease [1]): 109%; inhibition at 10 µM (HIV-1 protease [1]): 109%; inhibition at 30 µM (HIV-1 protease [1]): 96.6%; Ki (HIV-1 protease [2]; read-out: HIV Protease FITC Assay Ki): 6.06 nM
9 | Nc1ccc(S(=O)(=O)Nc2cccc(CC3=C(O)CC(CCc4ccccc4)(CCc4ccccc4)OC3=O)c2)nc1 [Example 354, N-[3-{1-(4-Hydroxy-5,6-dihydro-2-oxo-6,6-bis(2-phenylethyl)-2H-pyran-3-yl)methyl}phenyl]-5-aminopyridine-2-sulfonamide] |  |  |  |  |  |  |  | PROTEASE % INHIB. (HIV-1 protease [1]; [4]): < 10%; PROTEASE % INHIB. (HIV-1 protease [1]; [5]): 10.37%; PROTEASE % INHIB. (HIV-1 protease [1]; [6]): 26.79%; PROTEASE % INHIB. (HIV-1 protease [1]; [7]): 46.1%; PROTEASE % INHIB. (HIV-1 protease [1]; [8]): 54.97%; PROTEASE % INHIB. (HIV-1 protease [1]; [9]): 54.5%; Ki (HIV-1 protease [2]; [10]): 665 nM
10 | CCC(CC1CCCOC1)c1cc(O)c(C(c2cccc(NS(=O)(=O)c3cccc4cccnc34)c2)C2CC2)c(=O)o1 (centres unmarked) [Example 145A, N-(3-[Cyclopropyl[4-hydroxy-2-oxo-6-[1-[(tetrahydro-2H-pyran-3-yl)methyl]propyl]-2H-pyran-3-yl]methyl]phenyl]-8-quinolinesulfonamide] | 1.1 nM | 109% | 111% | 119% | 115% | 113% | 114% | 
11 | CC[C@H](Cc1ccccc1)c1cc(O)c(C(c2cccc(NS(=O)(=O)c3cn(C)cn3)c2)C2CC2)c(=O)o1 (single isomer, unassigned) [Example 137, N-(3-(R or S)-{Cyclopropyl-[6-(1-(R)-ethylphenethyl)-4-hydroxy-2-oxo-2H-pyran-3-yl]-methyl}-phenyl)-1-methyl-1H-imidazole-4-sulfonamide] | 0.52 nM and 0.7 nM | 98.8% | 91.5% | 101% | 110% | 98.2% | 93.8% | 
12 | CCCC1(CCC)CC(O)=C(C(CC)c2cccc(NS(=O)(=O)c3cn(C)cn3)c2)C(=O)O1 (centres unmarked) [Example 44, N-[3-[1-(4-hydroxy-2-oxo-6,6-dipropyl-5,6-dihydro-2H-pyran-3-yl)-propyl]-phenyi]-1-methyl-1H-imidazolesulfonamide] | 1.8 nM | 98.4% | 114% | 120% | 113% | 102% | 80% | 
13 | CCCC1(CCC)CC(O)=C(C(CC)c2cccc(NS(=O)(=O)c3ccc(F)cc3)c2)C(=O)O1 (centres unmarked) [Example 45, 4-Fluoro-N-[3-[1-(4-hydroxy-2-oxo-6,6-dipropyl-5,6-dihydro-2H-pyran-3-yl)-propyl]-phenyl]-benzenesulfonamide] | 4.78 nM | 82.2% | 94.4% | 101% | 103% | 89.8% | 67.5% | 
14 | CCCC1(CCc2ccc(F)cc2)CC(O)=C(C(c2cccc(NS(=O)(=O)c3cccc4cccnc34)c2)C(C)(C)C)C(=O)O1 (centres unmarked) [Example 329, N-[3-{1-(4-Hydroxy-5,6-dihydro-2-oxo-6-(2-(4-fluorophenyl)ethyl)-6-propyl-2H-pyran-3-yl)-2,2-dimethylpropyl)phenyl]-8-quinolinesulfonamide] |  |  |  |  |  |  |  | PROTEASE % INHIB. (HIV-1 protease [1]; [4]): 46.4%; PROTEASE % INHIB. (HIV-1 protease [1]; [5]): 88.19%; PROTEASE % INHIB. (HIV-1 protease [1]; [6]): 96.63%; PROTEASE % INHIB. (HIV-1 protease [1]; [7]): 100.32%; PROTEASE % INHIB. (HIV-1 protease [1]; [8]): 97.07%; PROTEASE % INHIB. (HIV-1 protease [1]; [9]): 96.35%; Ki (HIV-1 protease [2]; [10]): 12 nM
